{"source": "patent US11940442B2", "about": "“Method and system for determining integrated metabolic baseline and potential of living cells” (AGILENT TECHNOLOGIES, INC., priority 2015, dated 2024)", "key": {"[1]": {"test_system": "RAW 264.7 macrophage cells", "experiment": "Metabolic potential (OCR/ECAR, XFp) after co-injection of FCCP and oligomycin, LPS treatment", "format": "cell-based", "conditions": "1 μg/ml LPS, 1 hour; stress 0.5 μM FCCP + 1.0 μM oligomycin", "procedure": "Cells treated with LPS received media containing 1 μg/ml LPS, control cells received assay media.\nMetabolic potential was measured using an XFp Extracellular Flux Analyzer (Seahorse Bioscience) and XFp assay cartridges (Seahorse Bioscience). Briefly, microplates containing LPS-treated and control cells were placed in the XFp Extracellular Flux Analyzer, and initial OCR and ECAR measurements are taken."}, "[2]": {"test_system": "RAW 264.7 macrophage cells", "conditions": "RAW 264.7 cells, in the presence of 1.0 μM oligomycin; FCCP 0.125-2 μM tested", "description": "Cultured cells are first seeded into the wells of an appropriate microplate (also referred to herein as a multi-well plate) for the instrument being used (as described above). • 2. After adherence to the microplate, cells are either allowed to grow as desired, or may be assayed for metabolic potential immediately. • 3. At time of assay, cell culture media is exchanged for a volume of assay media appropriate for the microplate being used to create a cell sample including a plurality of cells disposed in a media. The microplate is allowed to incubate for 1 h at 37° C. in a non-CO2 incubator. • 4. […] To titrate optimal FCCP concentration in an XFe96 instrument, RAW 264.7 macrophages are exposed to varying concentrations of the drug, and the resulting OCR is measured. In this example, cells were first treated with 1.0 μM oligomycin (final concentration in 200 μl assay media), OCR was measured, and then one of the following concentrations of FCCP was added: 0.125, 0.25, 0.5, 1.0, or 2.0 μM (final concentration in 222 μl assay media). […] The metabolic potential of the cell sample may be determined by (i) providing the initial oxygen consumption rate, the initial extracellular acidification rate, the subsequent oxygen consumption rate, and the subsequent extracellular acidification rate to a software program, and (ii) using the software program to calculate the metabolic potential. […]"}, "[3]": {"test_system": "C2C12 myotubes", "experiment": "Metabolic potential (OCR/ECAR, XFp) after co-injection of FCCP and oligomycin, etomoxir treatment", "format": "cell-based", "conditions": "40 μM etomoxir, 1 hour; stress 0.5 μM FCCP + 1.0 μM oligomycin", "procedure": "C2C12 myoblast cells were seeded into XFp microplates at a density of 1.2×10^4 cells/well. […] During differentiation, medium was replaced with fresh differentiation medium every other day. […] Metabolic potential was measured using an XFp Extracellular Flux Analyzer (Seahorse Bioscience) and XFp assay cartridges (Seahorse Bioscience). Briefly, microplates containing etomoxir-treated and control myotubes were placed in the XFp Extracellular Flux Analyzer, and initial OCR and ECAR measurements are taken."}, "[4]": {"test_system": "C2C12 myoblast cells", "experiment": "Metabolic potential (OCR/ECAR, XFp) after co-injection of FCCP and oligomycin, UK5099 treatment", "format": "cell-based", "conditions": "2 μM UK5099, 1 hour; stress 0.5 μM FCCP + 1.0 μM oligomycin", "procedure": "C2C12 myoblast cells were seeded into XFp microplates at a density of 1.2×10^4 cells/well.\nTreated cells received media containing 2 μM UK5099 (a potent inhibitor of the mitochondrial pyruvate carrier), control cells received assay media.\nMetabolic potential was measured using an XFp Extracellular Flux Analyzer (Seahorse Bioscience) and XFp assay cartridges (Seahorse Bioscience). Briefly, microplates containing UK5099-treated and control cells were placed in the XFp Extracellular Flux Analyzer, and initial OCR and ECAR measurements are taken."}}}
{"molecule": "lipopolysaccharide [LPS]", "values": [{"measurement": "aerobic metabolic potential relative to control cells", "setting": "[1]", "value": "increased"}, {"measurement": "glycolytic potential relative to control cells", "setting": "[1]", "value": "roughly unchanged"}]}
{"molecule": "N#CC(C#N)=NNc1ccc(OC(F)(F)F)cc1", "note": "[FCCP, carbonyl cyanide p-trifluoromethoxyphenylhydrazone]", "values": [{"measurement": "FCCP concentration at which maximal OCR is achieved", "setting": "[2]", "value": 0.5, "unit": "µM"}]}
{"molecule": "CCOC(=O)[C@@]1(CCCCCCOc2ccc(Cl)cc2)CO1", "note": "[etomoxir]", "values": [{"measurement": "aerobic metabolic potential compared to control myotubes", "setting": "[3]", "value": "increased"}, {"measurement": "glycolytic metabolic potential compared to control myotubes", "setting": "[3]", "value": "slightly decreased"}]}
{"molecule": "N#C/C(=C\\c1cn(-c2ccccc2)c2ccccc12)C(=O)O", "note": "[UK5099]", "values": [{"measurement": "aerobic metabolic potential relative to control cells", "setting": "[4]", "value": "decreased"}, {"measurement": "glycolytic metabolic potential relative to control cells", "setting": "[4]", "value": "decreased"}]}
